From article PMC12040169 (PLOS Biology, 2025)

How the values were obtained:
[1] = tested on: T1, C. trachomatis L2/434/Bu expressing GFP (CTL2-GFP); assay: microbe, parasite or virus in culture; parameters: C. trachomatis total inclusion area by high-content imaging, normalised to DMSO; details: Chlamydia trachomatis, HeLa, 28.5 h; total inclusion area; read-out: % of control remaining
T1 construct: L2/434/Bu GFP intracellular growth in HeLa cells
Method in brief: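 First, bulk GFP and resorufin signals were measured in compound-treated infected cultures. Cells were next fixed and stained with Hoechst. Finally, high-content imaging quantified chlamydial inclusions (area, number) and host nuclei, and MICs were calculated.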

[2] = tested on: T2, CTL2-GFP (C. trachomatis L2/434/Bu, GFP-expressing); assay: microbe, parasite or virus in culture; parameters: Intracellular C. trachomatis growth in HeLa cells, bulk GFP fluorescence relative to DMSO; details: Chlamydia trachomatis, HeLa, 28.5 h; bulk GFP, mean of 2; read-out: % of control remaining
T2 construct: L2/434/Bu, GFP-expressing
Protocol: MICs were calculated as described above.

in vitro [3] = assay: in vitro; parameters: Viability of infected HeLa host cells, resazurin conversion, bulk resorufin fluorescence relative to DMSO; details: human, hela cells; bulk resorufin, mean of 2
in vitro [4] = details: human, hela cells, % viability

SMILES	activity at 1 µM [1] [%]	activity at 5 µM [1] [%]	activity at 10 µM [1] [%]	activity at 1 µM [2] [%]	activity at 5 µM [2] [%]	activity at 10 µM [2] [%]	viability at 28.5 h, 1 µM (in vitro [3]) [%]	viability at 28.5 h, 5 µM (in vitro [3]) [%]	viability at 28.5 h, 10 µM (in vitro [3]) [%]	viability at 28.5 h, 10 µM (in vitro [4]) [%]
c1ccc2c3c([nH]c2c1)C1(CCN(CCC2CCCCC2)C1)OCC3 (centres unmarked) [CBK061789]	51.4	5.37	3.22	168	72.4	23.7	92.9	90	84.9	83.3
COc1ccc(C(C)C)cc1-c1cn2ccnc2c(N2CCN(c3ccncc3)CC2)n1 [CBK066217]	96.6	75.5	31.5	91.5	63.5	28.4	102	104	101	116
O=C(CSc1nnc(-c2cccnc2)o1)c1ccccc1 [CBK068446]	67.4	24	6.22	74.8	13.2	1.98	112	111	114	139
COc1ccc([C@@H]2CN(C)C[C@H]2NC(=O)Nc2ccc(Cl)c(Cl)c2)cc1OC [CBK081111]	105	25.8	3.39	118	21.4	8.62	92.3	92.2	88.4	99.3
O=C(Nc1ccc(F)c(F)c1)NC1CCC2CN(CCOc3ccccc3)CC2C1 (centres unmarked) [CBK083365T]	35.6	0.438	0.173	34.9	8.25	5.26	89.3	86.5	88.8	105
COc1cc(CN2CCNCC2)c2ccn(S(=O)(=O)c3cccc(Cl)c3C)c2c1 [CBK144484T]	90.6	59.5	23.3	113	109	57.5	104	95.7	102	87.1
O=C(NCCc1c[nH]c2ccc(Cl)cc12)c1c(F)ccc(Cl)c1F [CBK159756]	92.7	39.2	2.12	103	35.2	3.33	98.5	96.7	94.6	93
CN1CCCN(c2ccc(NS(=O)(=O)c3cccc(F)c3)c3ccccc23)CC1 [CBK200010C]	77.8	43.7	26.8	108	66.2	43.7	94.4	100	95.1	84.9
CCOc1ccsc1C(=O)NC1Cc2ccccc2C1 [CBK200359]	88.7	0.493	0.44	57.4	3.62	6.67	104	96.4	93	82.6
NCCCNc1ncc(C(=O)NCc2ccccc2)c(NCC2CCCCC2)n1 [CBK215386]	95.7	73.1	19.8	97.9	89.2	32.4	113	116	96.6	103
O=C(N/N=C/c1c(O)ccc2ccccc12)c1ccc(CO)nc1 [CBK261375]	112	72.5	32.1	130	69	32.3	89.8	84.2	76.9	84.7
O=C(Nc1cccc(OC(=O)c2cc(S(=O)(=O)N3CCCCC3)ccc2Cl)c1)c1ccco1 [CBK262186]	101	85.8	33.3	110	106	76.3	101	96.6	100	110
OC(CN1CCN(Cc2ccccc2)CC1)Cn1c2ccc(Br)cc2c2cc(Br)ccc21 (centres unmarked) [CBK262203]	102	94.9	35	104	98.6	88.8	94.6	90.4	90	94.4
CC1=NN(c2ccccc2)C(=O)/C1=C/Nc1ccc(S(=O)(=O)Nc2nc(C)cc(C)n2)cc1 [CBK262368]	70.2	28.2	14.1	46.9	21	13.7	96.6	93.9	96.8	106
CC1=NN(c2ccc(C)cc2)C(=O)/C1=C\Nc1ccc(S(=O)(=O)Nc2nc(C)cc(C)n2)cc1 [CBK262398]	91.7	40.5	18	83.6	16.3	2.4	94.6	99.4	118	92.8
Cc1ccc(Cn2c(=N)n(CC(=O)c3cc(C(C)(C)C)c(O)c(C(C)(C)C)c3)c3ccccc32)cc1 [CBK262458B]	99.9	36.5	52	127	56.5	91.9	92.1	96.7	101	82.6
CC(Nc1cccc2ccccc12)C(=O)N/N=C/c1ccc(O)cc1O (centres unmarked) [CBK262681]	91.4	46.9	24.5	103	62.9	42.4	89.9	86.9	82.2	75.9
C/C(Nc1ccc(S(=O)(=O)Nc2nccc(C)n2)cc1)=C1\C(=O)N(c2nc3ccccc3s2)N=C1C(F)(F)F [CBK263002]	62.8	27.5	22.8	31.6	15.5	14.3	93.4	89.8	88.6	90.1
CCc1nnc(NS(=O)(=O)c2ccc(N/C=C\C(=O)c3ccc4ccccc4c3)cc2)s1 [CBK263385]	110	33.1	19.1	109	23.6	24	93.6	95.1	88.7	91.4
COc1c(Br)cc2c(cc(C)n2-c2ccccc2)c1OCC(O)CNC(C)C (centres unmarked) [CBK263516]	1.64	0.762	0.887	6.43	9.2	7.41	99.6	83	91.3	93.8
COc1ccc(C2CC(=O)C=C(Nc3cc(Cl)ccc3O)C2)cc1 (centres unmarked) [CBK263542]	81.9	0.174	3.14	86	0	9.05	90.9	101	87.8	105
Cc1cc(C)nc(NS(=O)(=O)c2ccc(NC(=O)N3c4ccccc4Sc4ccccc43)cc2)n1 [CBK263922]	112	51.2	28.5	115	67.1	28.2	92.3	90.2	89.4	101
CCC(Sc1nnc2c(n1)[nH]c1ccccc12)C(=O)N1c2ccccc2Sc2ccccc21 (centres unmarked) [CBK263929]	32.8	30.8	13.4	60.4	52.9	44.5	94.1	89.8	88.6	95.1
